According to PubChem BioAssay (NCI):
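Grown in 96-well plates, cells were treated for 48 hours with each compound at five concentrations. Insufficient inhibition: endpoint recorded as highest concentration tested. The concentration for full growth arrest is given as TGI.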

What was measured:
Assay in all cases: growth of human tumour cells (NCI), 48 h
A549 NSCLC = system: A549 NSCLC
MALME-3M melanoma = system: MALME-3M melanoma
UO-31 renal = system: UO-31 renal
HCT-15 colon = system: HCT-15 colon
786-0 renal = system: 786-0 renal
K-562 leukemia = system: K-562 leukemia
HCT-116 colon = system: HCT-116 colon
HOP-92 NSCLC = system: HOP-92 NSCLC
KM12 colon = system: KM12 colon
SNB-75 CNS = system: SNB-75 CNS
NCI-H23 lung = system: NCI-H23 lung
HT29 colon = system: HT29 colon
EKVX NSCLC = system: EKVX NSCLC
LOX IMVI melanoma = system: LOX IMVI melanoma
SNB-19 CNS = system: SNB-19 CNS
OVCAR-8 ovarian = system: OVCAR-8 ovarian
PC-3 prostate = system: PC-3 prostate
DU-145 prostate = system: DU-145 prostate
MOLT-4 leukemia = system: MOLT-4 leukemia
SK-MEL-2 melanoma = system: SK-MEL-2 melanoma
RXF 393 renal = system: RXF 393 renal
NCI/ADR-RES ovarian = system: NCI/ADR-RES ovarian
NCI-H522 lung = system: NCI-H522 lung
SW-620 colon = system: SW-620 colon
IGROV1 ovarian = system: IGROV1 ovarian
SF-268 CNS = system: SF-268 CNS
OVCAR-3 ovarian = system: OVCAR-3 ovarian
HS 578T breast = system: HS 578T breast
HOP-62 NSCLC = system: HOP-62 NSCLC
HL-60(TB) leukemia = system: HL-60(TB) leukemia
NCI-H226 lung = system: NCI-H226 lung
TK-10 renal = system: TK-10 renal
SK-MEL-28 melanoma = system: SK-MEL-28 melanoma
UACC-257 melanoma = system: UACC-257 melanoma
CCRF-CEM leukemia = system: CCRF-CEM leukemia
COLO 205 colon = system: COLO 205 colon
SK-MEL-5 melanoma = system: SK-MEL-5 melanoma
A498 renal = system: A498 renal
T-47D breast = system: T-47D breast
SF-539 CNS = system: SF-539 CNS
NCI-H460 lung = system: NCI-H460 lung
UACC-62 melanoma = system: UACC-62 melanoma
SF-295 CNS = system: SF-295 CNS
U251 CNS = system: U251 CNS
MDA-MB-231 breast = system: MDA-MB-231 breast
MDA-MB-435 = system: MDA-MB-435
ACHN renal = system: ACHN renal
M14 melanoma = system: M14 melanoma
RPMI-8226 leukemia = system: RPMI-8226 leukemia
OVCAR-5 ovarian = system: OVCAR-5 ovarian
MDA-N = system: MDA-N
HCC-2998 colon = system: HCC-2998 colon
SR leukemia = system: SR leukemia
MCF7 breast = system: MCF7 breast
CAKI-1 renal = system: CAKI-1 renal
SK-OV-3 ovarian = system: SK-OV-3 ovarian
OVCAR-4 ovarian = system: OVCAR-4 ovarian
SN12C renal = system: SN12C renal

## O=C(O)CCC(NC(=O)c1ccc(Nc2nc3cc(C(F)(F)F)ccc3nc2C(=O)O)cc1)C(=O)O (centres undefined)
A549 NSCLC
  TGI: > 100 µM
MALME-3M melanoma
  TGI: > 100 µM
UO-31 renal
  TGI: > 100 µM
HCT-15 colon
  TGI: > 100 µM
786-0 renal
  TGI: > 100 µM
K-562 leukemia
  TGI: > 100 µM
HCT-116 colon
  TGI: > 100 µM
HOP-92 NSCLC
  TGI: > 100 µM
KM12 colon
  TGI: > 100 µM
SNB-75 CNS
  TGI: > 100 µM
NCI-H23 lung
  TGI: > 100 µM
HT29 colon
  TGI: > 100 µM
EKVX NSCLC
  TGI: > 100 µM
LOX IMVI melanoma
  TGI: > 100 µM
SNB-19 CNS
  TGI: > 100 µM
OVCAR-8 ovarian
  TGI: > 100 µM
PC-3 prostate
  TGI: > 100 µM
DU-145 prostate
  TGI: > 100 µM
MOLT-4 leukemia
  TGI: > 100 µM
SK-MEL-2 melanoma
  TGI: > 100 µM
RXF 393 renal
  TGI: > 100 µM
NCI/ADR-RES ovarian
  TGI: > 100 µM
NCI-H522 lung
  TGI: > 100 µM
SW-620 colon
  TGI: > 100 µM
IGROV1 ovarian
  TGI: > 100 µM
SF-268 CNS
  TGI: > 100 µM
OVCAR-3 ovarian
  TGI: > 100 µM
HS 578T breast
  TGI: > 100 µM
HOP-62 NSCLC
  TGI: > 100 µM
HL-60(TB) leukemia
  TGI: > 100 µM
NCI-H226 lung
  TGI: > 100 µM
TK-10 renal
  TGI: > 100 µM
SK-MEL-28 melanoma
  TGI: > 100 µM
UACC-257 melanoma
  TGI: > 100 µM
CCRF-CEM leukemia
  TGI: > 100 µM
COLO 205 colon
  TGI: > 100 µM
SK-MEL-5 melanoma
  TGI: > 100 µM
A498 renal
  TGI: > 100 µM
T-47D breast
  TGI: > 100 µM
SF-539 CNS
  TGI: > 100 µM
NCI-H460 lung
  TGI: > 100 µM
UACC-62 melanoma
  TGI: > 100 µM
SF-295 CNS
  TGI: > 100 µM
U251 CNS
  TGI: > 100 µM
MDA-MB-231 breast
  TGI: > 100 µM
MDA-MB-435
  TGI: > 100 µM
ACHN renal
  TGI: > 100 µM
M14 melanoma
  TGI: > 100 µM
RPMI-8226 leukemia
  TGI: > 100 µM
OVCAR-5 ovarian
  TGI: > 100 µM
MDA-N
  TGI: > 100 µM
HCC-2998 colon
  TGI: > 100 µM
SR leukemia
  TGI: > 100 µM
MCF7 breast
  TGI: > 100 µM

## CC(C)(C)[Si](C)(C)OCC1OC(n2cnc3c(=O)[nH]c(N)nc32)C(O[Si](C)(C)C(C)(C)C)C1O[Si](C)(C)C(C)(C)C (centres undefined)
A549 NSCLC
  TGI: 7.61 µM
MALME-3M melanoma
  TGI: 4.02 µM
UO-31 renal
  TGI: 15.3 µM
HCT-15 colon
  TGI: > 100 µM
786-0 renal
  TGI: 4.88 µM
K-562 leukemia
  TGI: 2.76 µM
HCT-116 colon
  TGI: 2.61 µM
HOP-92 NSCLC
  TGI: 7.37 µM
KM12 colon
  TGI: 3.19 µM
SNB-75 CNS
  TGI: 9.57 µM
CAKI-1 renal
  TGI: 52.9 µM
NCI-H23 lung
  TGI: 2.9 µM
HT29 colon
  TGI: 4.16 µM
EKVX NSCLC
  TGI: > 46.6 µM
LOX IMVI melanoma
  TGI: > 19.7 µM
SNB-19 CNS
  TGI: 6.14 µM
OVCAR-8 ovarian
  TGI: 11.3 µM
PC-3 prostate
  TGI: 9.79 µM
DU-145 prostate
  TGI: 12.2 µM
MOLT-4 leukemia
  TGI: 3.45 µM
SK-MEL-2 melanoma
  TGI: 1.01 µM
SK-OV-3 ovarian
  TGI: 4.45 µM
RXF 393 renal
  TGI: 4.69 µM
NCI/ADR-RES ovarian
  TGI: > 100 µM
NCI-H522 lung
  TGI: 3.61 µM
SW-620 colon
  TGI: > 20.4 µM
OVCAR-4 ovarian
  TGI: 3.65 µM
IGROV1 ovarian
  TGI: 3.91 µM
SF-268 CNS
  TGI: 7.16 µM
OVCAR-3 ovarian
  TGI: 3.56 µM
HS 578T breast
  TGI: 7.65 µM
HOP-62 NSCLC
  TGI: 7.73 µM
HL-60(TB) leukemia
  TGI: 2.34 µM
NCI-H226 lung
  TGI: 6.79 µM
TK-10 renal
  TGI: 5.97 µM
SK-MEL-28 melanoma
  TGI: 3.89 µM
UACC-257 melanoma
  TGI: 9.4 µM
COLO 205 colon
  TGI: 3.2 µM
SK-MEL-5 melanoma
  TGI: 1.77 µM
A498 renal
  TGI: 6.21 µM
T-47D breast
  TGI: 5.14 µM
SF-539 CNS
  TGI: 5.72 µM
NCI-H460 lung
  TGI: 6.54 µM
SN12C renal
  TGI: 5.02 µM
UACC-62 melanoma
  TGI: 4.3 µM
SF-295 CNS
  TGI: 12 µM
U251 CNS
  TGI: 3.71 µM
MDA-MB-231 breast
  TGI: 10.5 µM
MDA-MB-435
  TGI: 2.88 µM
ACHN renal
  TGI: 12.9 µM
M14 melanoma
  TGI: 2.89 µM
RPMI-8226 leukemia
  TGI: 3.46 µM
OVCAR-5 ovarian
  TGI: 5.79 µM
MDA-N
  TGI: 3.3 µM
HCC-2998 colon
  TGI: 4.02 µM
SR leukemia
  TGI: 5.48 µM
MCF7 breast
  TGI: 3.9 µM

## NC1CC=C(COC(=O)C(O)(c2ccccc2)C2CC2)CC1 (centres undefined)
A549 NSCLC
  TGI: > 100 µM
MALME-3M melanoma
  TGI: > 100 µM
UO-31 renal
  TGI: > 100 µM
HCT-15 colon
  TGI: > 100 µM
786-0 renal
  TGI: > 100 µM
HCT-116 colon
  TGI: > 100 µM
KM12 colon
  TGI: > 100 µM
SNB-75 CNS
  TGI: > 100 µM
CAKI-1 renal
  TGI: > 100 µM
NCI-H23 lung
  TGI: > 100 µM
HT29 colon
  TGI: > 100 µM
EKVX NSCLC
  TGI: > 100 µM
LOX IMVI melanoma
  TGI: > 100 µM
SNB-19 CNS
  TGI: > 100 µM
OVCAR-8 ovarian
  TGI: > 100 µM
PC-3 prostate
  TGI: > 100 µM
DU-145 prostate
  TGI: > 100 µM
MOLT-4 leukemia
  TGI: > 100 µM
SK-OV-3 ovarian
  TGI: > 100 µM
RXF 393 renal
  TGI: > 100 µM
NCI/ADR-RES ovarian
  TGI: > 100 µM
NCI-H522 lung
  TGI: > 100 µM
SW-620 colon
  TGI: > 100 µM
IGROV1 ovarian
  TGI: > 100 µM
SF-268 CNS
  TGI: > 100 µM
OVCAR-3 ovarian
  TGI: > 100 µM
HOP-62 NSCLC
  TGI: > 100 µM
NCI-H226 lung
  TGI: > 100 µM
TK-10 renal
  TGI: > 100 µM
SK-MEL-28 melanoma
  TGI: > 100 µM
UACC-257 melanoma
  TGI: > 100 µM
COLO 205 colon
  TGI: > 100 µM
SK-MEL-5 melanoma
  TGI: > 100 µM
T-47D breast
  TGI: > 100 µM
SF-539 CNS
  TGI: > 100 µM
SN12C renal
  TGI: > 100 µM
UACC-62 melanoma
  TGI: > 100 µM
SF-295 CNS
  TGI: > 100 µM
U251 CNS
  TGI: > 100 µM
MDA-MB-231 breast
  TGI: > 100 µM
ACHN renal
  TGI: > 100 µM
M14 melanoma
  TGI: > 100 µM
RPMI-8226 leukemia
  TGI: > 100 µM
OVCAR-5 ovarian
  TGI: > 100 µM
MDA-N
  TGI: > 100 µM
HCC-2998 colon
  TGI: > 100 µM
SR leukemia
  TGI: > 100 µM
MCF7 breast
  TGI: > 100 µM
